pKi: −log10 of the molar value.
Tests used:
Translocator protein [1] = target: T1, Translocator protein (Rattus norvegicus, UniProt P16257); assay: Inhibition of [3H]PK11195 binding to Peripheral type benzodiazepine receptor (PBR) in rat cortex homogenate by 50%
Translocator protein [2] = target: T1, Translocator protein; assay: Inhibition of [3H]PK11195 binding to mitochondrial rat testis Peripheral type benzodiazepine receptor (PBR)
Translocator protein [3] = target: T1, Translocator protein; assay: Inhibition of [3H]Ro-5-4864 binding to mitochondrial rat testis Peripheral type benzodiazepine receptor (PBR)
[4] = Stimulatory effect on progesterone biosynthesis in MA10 leydig cells; format: functional, Mus musculus

T1 sequence (P16257 whole entry, looked up): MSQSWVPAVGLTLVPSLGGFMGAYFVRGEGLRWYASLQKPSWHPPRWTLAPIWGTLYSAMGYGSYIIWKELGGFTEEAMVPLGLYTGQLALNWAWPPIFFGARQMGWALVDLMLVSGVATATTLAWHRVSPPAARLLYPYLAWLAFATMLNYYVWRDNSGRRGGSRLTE

| SMILES | pKi (Translocator protein [1]) | pKi (Translocator protein [2]) | pKi (Translocator protein [3]) | Progesterone production [4] |
| --- | --- | --- | --- | --- |
| CCN(C)C(=O)OC1=C(c2ccccc2)Oc2ccccc2-n2cccc21 | 9.11 | – | – | – |
| CCN(CC)C(=O)OC1=C(c2cccs2)Oc2ccccc2-n2cccc21 | 7.94 | – | – | – |
| O=C(OC1=C(c2ccccc2)Oc2ccccc2-n2cccc21)N1CCC1 | 8.22 | 8.22 | 8.37 | 3.5 ng 2hr-1 (10e5*cells)-1 |
| CCN(CC)C(=O)OC1=C(c2cccs2)Oc2cccnc2-n2cccc21 | 9.64 | – | – | – |
| CCN(CC)C(=O)OC1=C(c2cccc(C)c2)Oc2cccnc2-n2cccc21 | 9.25 | – | – | – |
| CCCN(C)C(=O)OC1=C(c2ccccc2)Oc2ccccc2-n2cccc21 | 9.16 | – | – | – |
| CCCNC(=O)OC1=C(c2ccccc2)Oc2ccccc2-n2cccc21 | 9.04 | – | – | – |
| CCN(CC)C(=O)OC1=C(c2cccc(C)c2)Oc2ccccc2-n2cccc21 | 8.92 | – | – | – |
| CCCCN(C)C(=O)OC1=C(c2ccccc2)Oc2ccccc2-n2cccc21 | 9.04 | – | – | – |
| Cc1ccc(C2=C(OC(=O)N(C)C)c3cccn3-c3ncccc3O2)cc1 | 9.36 | – | – | – |
| CCNC(=O)OC1=C(c2ccccc2)Oc2c(Cl)cccc2-n2cccc21 | 9.74 | – | – | – |
| CCN(CC)C(=O)OC1=C(c2cc(F)cc(F)c2)Oc2ccccc2-n2cccc21 | 8.90 | – | – | – |
| CN1CCN(C(=O)OC2=C(c3ccccc3)Oc3ccccc3-n3cccc32)CC1 | 8.14 | 7.54 | 7.82 | 3.8 ng 2hr-1 (10e5*cells)-1 |
| CC(=O)OC1=C(c2ccc(C)cc2)Oc2cccnc2-n2cccc21 | 7.87 | – | – | – |
| CC(=O)OC1=C(c2cccc(C)c2)Oc2ccccc2-n2cccc21 | 8.60 | – | – | – |
| O=C1CN=C(c2ccccc2Cl)c2cc([N+](=O)[O-])ccc2N1 [CLONAZEPAM] | – | – | – | 2.3 ng 2hr-1 (10e5*cells)-1 |
| O=C(NC1CC1)OC1=C(c2ccccc2)Oc2ccccc2-n2cccc21 | 8.66 | 9.51 | 9.33 | 3.5 ng 2hr-1 (10e5*cells)-1 |
| CCNC(=O)OC1=C(c2ccc(C)cc2)Oc2ccccc2-n2cccc21 | 9.17 | – | – | – |
| CCN(CC)C(=O)OC1=C(c2ccccc2)Oc2cccnc2-n2cccc21 | 8.75 | 7.96 | 7.66 | 3.5 ng 2hr-1 (10e5*cells)-1 |
| CCNC(=O)OC1=C(c2ccccc2)Oc2ccccc2-n2cccc21 | 9.96 | 9.70 | 10.00 | 3.3 ng 2hr-1 (10e5*cells)-1 |
| CCN(CC)C(=O)OC1=C(c2ccccc2)Cc2ccccc2-n2cccc21 | 8.24 | – | – | – |
| CCC(C)N(C)C(=O)c1cc2ccccc2c(-c2ccccc2Cl)n1 (configuration not stated) [PK-11195] | – | – | – | 3.4 ng 2hr-1 (10e5*cells)-1 |

Reference: ChEMBL document CHEMBL1135787, “Synthesis of new molecular probes for investigation of steroid biosynthesis induced by selective interaction with peripheral type benzodiazepine receptors (PBR)” (J Med Chem, 2002)
